Measured values reported in patent US11780833B2, “Emetine derivatives, prodrugs containing same, and methods of treating conditions using same” (HOWARD UNIVERSITY, priority 2011, dated 2023).

Each compound was assayed on LNCaP cells (assay: Cytotoxicity in LNCaP prostate cancer cell line). Settings: Homo sapiens, 168 h, read-out: IC50 after 7 days.
Type: cell-based
Protocol: (§1) Studies were carried out on three prostate cancer cell lines: LNCaP, PC3, and DU145. […] There was not a significant difference in cytotoxicity of emetine between days 3 and 7. […] This increase is most likely due to the release of emetine from the dithiocarbamate salt over the time period. Further drug release studies at pH 5 confirmed about 45% release of emetine from the dithiocarbamate salt after 3-day incubation at this acidic pH maintained at 37° C., whereas release of emetine from the dithiocarbamate salt was not observed at physiological pH (e.g., about 7.4).
(§2) Various compounds prepared according to Examples 1-5 were studied in LNCaP, PC3, and DU145 cells.

SMILES	IC50 [µM]
CCC1CN2CCc3cc(OC)c(OC)cc3C2CC1CC1c2cc(OC)c(OC)cc2CCN1C(=O)NCc1ccccc1 (stereo not shown) [Compound 13e]	2.12 ± 0.576

The compounds below were run on DU145 cells (assay: cells). Settings: Homo sapiens, DU-145, 72 h, read-out: IC50 in DU145.
Type: cell-based
Protocol: as §1, §2
(§3) Various compounds prepared according to Example 6 were studied in DU145 and PC3 cells. The IC50 was determined at 3, 5, and 7 days.

SMILES	IC50 [µM]
CCC1CN2CCc3cc(OC)c(OC)cc3C2CC1CC1c2cc(OC)c(OC)cc2CCN1C(=O)/C=C(/CC(=O)O)C(=O)O (stereo not shown) [Compound 15d2]	2.58 ± 0.191
CCC1CN2CCc3cc(OC)c(OC)cc3C2CC1CC1c2cc(OC)c(OC)cc2CCN1C(=O)/C(Cl)=C(\Cl)C(=O)O (stereo not shown) [Compound 15b2]	6.53 ± 0.0852
CCC1CN2CCc3cc(OC)c(OC)cc3C2CC1CC1c2cc(OC)c(OC)cc2CCN1C(=O)/C=C/C(=O)O (stereo not shown) [Compound 15a2]	7.96 ± 0.312
CCC1CN2CCc3cc(OC)c(OC)cc3C2CC1CC1c2cc(OC)c(OC)cc2CCN1C(=O)CCC(=O)O (stereo not shown) [Compound 15e2]	0.733 ± 0.022

Same assay, conditions: Homo sapiens, DU-145, 120 h, read-out: IC50 in DU145

SMILES	IC50 [µM]
CCC1CN2CCc3cc(OC)c(OC)cc3C2CC1CC1c2cc(OC)c(OC)cc2CCN1C(=O)/C=C(/CC(=O)O)C(=O)O (stereo not shown) [Compound 15d2]	2.01 ± 0.0734
CCC1CN2CCc3cc(OC)c(OC)cc3C2CC1CC1c2cc(OC)c(OC)cc2CCN1C(=O)/C(Cl)=C(\Cl)C(=O)O (stereo not shown) [Compound 15b2]	5.99 ± 0.239
CCC1CN2CCc3cc(OC)c(OC)cc3C2CC1CC1c2cc(OC)c(OC)cc2CCN1C(=O)/C=C/C(=O)O (stereo not shown) [Compound 15a2]	5.73 ± 0.182
CCC1CN2CCc3cc(OC)c(OC)cc3C2CC1CC1c2cc(OC)c(OC)cc2CCN1C(=O)CCC(=O)O (stereo not shown) [Compound 15e2]	0.641 ± 0.0543

Same assay, conditions: Homo sapiens, DU-145, 168 h, read-out: IC50 after 7 days

SMILES	IC50 [µM]
CCC1CN2CCc3cc(OC)c(OC)cc3C2CC1CC1c2cc(OC)c(OC)cc2CCN1C(=S)SCC(=O)c1ccc(Cl)cc1 (stereo not shown) [Compound 4i]	2.45 ± 0.162
CCC1CN2CCc3cc(OC)c(OC)cc3C2CC1CC1c2cc(OC)c(OC)cc2CCN1C(=S)SCCN1C(=O)c2ccccc2C1=O (stereo not shown) [Compound 4d]	3.05 ± 0.07
CCC1CN2CCc3cc(OC)c(OC)cc3C2CC1CC1c2cc(OC)c(OC)cc2CCN1C(=S)NCc1ccc(C)cc1 (stereo not shown) [Compound 11j]	2.63 ± 0.106
CCC1CN2CCc3cc(OC)c(OC)cc3C2CC1CC1c2cc(OC)c(OC)cc2CCN1S(=O)(=O)c1ccc(C)cc1 (stereo not shown) [Compound 8a]	6.24 ± 0.098
CCC1CN2CCc3cc(OC)c(OC)cc3C2CC1CC1c2cc(OC)c(OC)cc2CCN1S(=O)(=O)c1ccc(F)cc1 (stereo not shown) [Compound 8c]	8.038 ± 0.06
CCC1CN2CCc3cc(OC)c(OC)cc3C2CC1CC1c2cc(OC)c(OC)cc2CCN1S(=O)(=O)c1ccc(Cl)cc1 (stereo not shown) [Compound 8d]	6.62 ± 0.167
CCC1CN2CCc3cc(OC)c(OC)cc3C2CC1CC1c2cc(OC)c(OC)cc2CCN1C(=S)Nc1ccc(OC)cc1 (stereo not shown) [Compound 11b]	0.467 ± 0.025
CCC1CN2CCc3cc(OC)c(OC)cc3C2CC1CC1c2cc(OC)c(OC)cc2CCN1C(=S)NCc1ccccc1Cl (stereo not shown) [Compound 11h]	2.37 ± 0.112

Same assay, conditions: Homo sapiens, DU-145, 168 h, read-out: IC50 in DU145

SMILES	IC50 [µM]
CCC1CN2CCc3cc(OC)c(OC)cc3C2CC1CC1c2cc(OC)c(OC)cc2CCN1C(=O)/C=C(/CC(=O)O)C(=O)O (stereo not shown) [Compound 15d2]	1.79 ± 0.134
CCC1CN2CCc3cc(OC)c(OC)cc3C2CC1CC1c2cc(OC)c(OC)cc2CCN1C(=O)/C(Cl)=C(\Cl)C(=O)O (stereo not shown) [Compound 15b2]	5.218 ± 0.0459
CCC1CN2CCc3cc(OC)c(OC)cc3C2CC1CC1c2cc(OC)c(OC)cc2CCN1C(=O)/C=C/C(=O)O (stereo not shown) [Compound 15a2]	4.23 ± 0.418
CCC1CN2CCc3cc(OC)c(OC)cc3C2CC1CC1c2cc(OC)c(OC)cc2CCN1C(=O)CCC(=O)O (stereo not shown) [Compound 15e2]	0.802 ± 0.0198

These compounds were tested on PC3 cells (assay: cells). Settings: Homo sapiens, PC-3, 72 h, read-out: IC50 in PC3.
Type: cell-based
Protocol: as §1, §2, §3

SMILES	IC50 [µM]
CCC1CN2CCc3cc(OC)c(OC)cc3C2CC1CC1c2cc(OC)c(OC)cc2CCN1C(=O)/C=C(/CC(=O)O)C(=O)O (stereo not shown) [Compound 15d2]	3.06 ± 0.11
CCC1CN2CCc3cc(OC)c(OC)cc3C2CC1CC1c2cc(OC)c(OC)cc2CCN1C(=O)/C(Cl)=C(\Cl)C(=O)O (stereo not shown) [Compound 15b2]	7.58 ± 0.135
CCC1CN2CCc3cc(OC)c(OC)cc3C2CC1CC1c2cc(OC)c(OC)cc2CCN1C(=O)/C=C/C(=O)O (stereo not shown) [Compound 15a2]	8.39 ± 0.208
CCC1CN2CCc3cc(OC)c(OC)cc3C2CC1CC1c2cc(OC)c(OC)cc2CCN1C(=O)CCC(=O)O (stereo not shown) [Compound 15e2]	2.5 ± 0.0722

Same assay, conditions: Homo sapiens, PC-3, 120 h, read-out: IC50 in PC3

SMILES	IC50 [µM]
CCC1CN2CCc3cc(OC)c(OC)cc3C2CC1CC1c2cc(OC)c(OC)cc2CCN1C(=O)/C=C(/CC(=O)O)C(=O)O (stereo not shown) [Compound 15d2]	2.43 ± 0.118
CCC1CN2CCc3cc(OC)c(OC)cc3C2CC1CC1c2cc(OC)c(OC)cc2CCN1C(=O)/C(Cl)=C(\Cl)C(=O)O (stereo not shown) [Compound 15b2]	5.99 ± 0.239
CCC1CN2CCc3cc(OC)c(OC)cc3C2CC1CC1c2cc(OC)c(OC)cc2CCN1C(=O)/C=C/C(=O)O (stereo not shown) [Compound 15a2]	7.058 ± 0.0157
CCC1CN2CCc3cc(OC)c(OC)cc3C2CC1CC1c2cc(OC)c(OC)cc2CCN1C(=O)CCC(=O)O (stereo not shown) [Compound 15e2]	1.82 ± 0.161

Same assay, conditions: Homo sapiens, PC-3, 168 h, read-out: IC50 after 7 days

SMILES	IC50 [µM]
CCC1CN2CCc3cc(OC)c(OC)cc3C2CC1CC1c2cc(OC)c(OC)cc2CCN1C(=S)NCc1ccc(OC)cc1 (stereo not shown) [Compound 11f]	5 ± 0.307
CCC1CN2CCc3cc(OC)c(OC)cc3C2CC1CC1c2cc(OC)c(OC)cc2CCN1S(=O)(=O)c1ccc(OC)cc1 (stereo not shown) [Compound 8f]	6.08 ± 0.105
CCC1CN2CCc3cc(OC)c(OC)cc3C2CC1CC1c2cc(OC)c(OC)cc2CCN1C(=S)SCC(=O)c1ccc(Cl)cc1 (stereo not shown) [Compound 4i]	2.69 ± 0.145
CCC1CN2CCc3cc(OC)c(OC)cc3C2CC1CC1c2cc(OC)c(OC)cc2CCN1C(=S)Nc1ccc(Cl)cc1 (stereo not shown) [Compound 11c]	0.505 ± 0.0159
CCC1CN2CCc3cc(OC)c(OC)cc3C2CC1CC1c2cc(OC)c(OC)cc2CCN1C(=S)SCCN1C(=O)c2ccccc2C1=O (stereo not shown) [Compound 4d]	2.77 ± 0.06
CCC1CN2CCc3cc(OC)c(OC)cc3C2CC1CC1c2cc(OC)c(OC)cc2CCN1C(=S)Nc1ccccc1 (stereo not shown) [Compound 11a]	0.484 ± 0.0247
CCC1CN2CCc3cc(OC)c(OC)cc3C2CC1CC1c2cc(OC)c(OC)cc2CCN1C(=S)NCCOC (stereo not shown) [Compound 11n]	> 10
CCC1CN2CCc3cc(OC)c(OC)cc3C2CC1CC1c2cc(OC)c(OC)cc2CCN1S(=O)(=O)c1ccc(F)cc1 (stereo not shown) [Compound 8c]	4.58 ± 0.383
CCC1CN2CCc3cc(OC)c(OC)cc3C2CC1CC1c2cc(OC)c(OC)cc2CCN1C(=S)NCc1ccc(F)cc1 (stereo not shown) [Compound 11i]	5.27 ± 0.372
CCC1CN2CCc3cc(OC)c(OC)cc3C2CC1CC1c2cc(OC)c(OC)cc2CCN1S(=O)(=O)c1ccc(Cl)cc1 (stereo not shown) [Compound 8d]	4.21 ± 0.435

Same assay, conditions: Homo sapiens, PC-3, 168 h, read-out: IC50 in PC3

SMILES	IC50 [µM]
CCC1CN2CCc3cc(OC)c(OC)cc3C2CC1CC1c2cc(OC)c(OC)cc2CCN1C(=O)/C=C(/CC(=O)O)C(=O)O (stereo not shown) [Compound 15d2]	2.89 ± 0.123
CCC1CN2CCc3cc(OC)c(OC)cc3C2CC1CC1c2cc(OC)c(OC)cc2CCN1C(=O)/C(Cl)=C(\Cl)C(=O)O (stereo not shown) [Compound 15b2]	7.51 ± 0.168
CCC1CN2CCc3cc(OC)c(OC)cc3C2CC1CC1c2cc(OC)c(OC)cc2CCN1C(=O)/C=C/C(=O)O (stereo not shown) [Compound 15a2]	7.71 ± 0.151
CCC1CN2CCc3cc(OC)c(OC)cc3C2CC1CC1c2cc(OC)c(OC)cc2CCN1C(=O)CCC(=O)O (stereo not shown) [Compound 15e2]	2.15 ± 0.131
